Columns and labels:
Assay in all cases: relative viability (nuclei count vs DMSO), 5 days (fraction); higher = more cells survive
QS11 + Luminespib = compound: C1CC2=C(C1)C=C(C=C2)OC3=NC(=C4C(=N3)N(C=N4)CC5=CC=C(C=C5)C6=CC=CC=C6)N[C@@H](CC7=CC=CC=C7)CO [QS11] + CCNC(=O)c1noc(-c2cc(C(C)C)c(O)cc2O)c1-c1ccc(CN2CCOCC2)cc1 [Luminespib] (partner 0.01 µM)
How it was run: (§1)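 For relative viability, nuclei counts in treated wells were divided by those in vehicle wells. Lung cancer cell lines had been pin-tool dosed in 1536-well plates the day after seeding and cultured for 5 days, then fixed and stained in one step (final 0.05% Triton X-100, 1% formaldehyde, 1 ug/ml Hoechst) and imaged at 4×. Doses were one drug alone or a fixed anchor-drug dose plus five library-drug doses (not always all listed) in √10 steps, and values are duplicate-plate medians.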

QS11 + Lapatinib = compound: C1CC2=C(C1)C=C(C=C2)OC3=NC(=C4C(=N3)N(C=N4)CC5=CC=C(C=C5)C6=CC=CC=C6)N[C@@H](CC7=CC=CC=C7)CO [QS11] + CS(=O)(=O)CCNCc1ccc(-c2ccc3ncnc(Nc4ccc(OCc5cccc(F)c5)c(Cl)c4)c3c2)o1 [Lapatinib] (partner 2 µM)
How it was run: as §1

QS11 + AZD7762 = compound: C1CC2=C(C1)C=C(C=C2)OC3=NC(=C4C(=N3)N(C=N4)CC5=CC=C(C=C5)C6=CC=CC=C6)N[C@@H](CC7=CC=CC=C7)CO [QS11] + NC(=O)Nc1cc(-c2cccc(F)c2)sc1C(=O)N[C@H]1CCCNC1 [AZD7762] (partner 0.2 µM)
How it was run: as §1

[1] = compound: C[As](C)SC[C@H](NC(=O)CC[C@H](N)C(=O)O)C(=O)NCC(=O)O [Darinaparsin] + CS(=O)(=O)N1CCN(Cc2cc3nc(-c4cccc5[nH]ncc45)nc(N4CCOCC4)c3s2)CC1 [Pictilisib] (partner 1 µM)
How it was run: as §1

Cell Line | relative viability (QS11 + Luminespib; first compound 0.08 µM) | relative viability (QS11 + Luminespib; first compound 0.253 µM) | relative viability (QS11 + Luminespib; first compound 0.8 µM) | relative viability (QS11 + Luminespib; first compound 2.53 µM) | relative viability (QS11 + Luminespib; first compound 8 µM) | relative viability (QS11 + Lapatinib; first compound 0.08 µM) | relative viability (QS11 + Lapatinib; first compound 0.253 µM) | relative viability (QS11 + Lapatinib; first compound 0.8 µM) | relative viability (QS11 + Lapatinib; first compound 2.53 µM) | relative viability (QS11 + Lapatinib; first compound 8 µM) | relative viability (QS11 + AZD7762; first compound 0.08 µM) | relative viability (QS11 + AZD7762; first compound 0.253 µM) | relative viability (QS11 + AZD7762; first compound 0.8 µM) | relative viability (QS11 + AZD7762; first compound 2.53 µM) | relative viability (QS11 + AZD7762; first compound 8 µM) | relative viability ([1]; first compound 0.08 µM) | relative viability ([1]; first compound 0.8 µM) | relative viability ([1]; first compound 2.53 µM) | relative viability ([1]; first compound 8 µM)
NCI-H1975 | 0.199 | 0.33 | 0.275 | 0.281 | 0.2 | 0.912 | 0.805 | 0.965 | 1.03 | 1.18 | 0.668 | 0.629 | 0.849 | 0.874 | 0.919 | 0.289 | 0.299 | 0.289 | 0.28
CAL-12T | 0.608 | 0.578 | 0.478 | 0.362 | 0.551 | 0.631 | 0.601 | 0.595 | 0.652 | 0.68 | 0.736 | 0.572 | 0.546 | 0.596 | 0.551 | 0.392 | 0.335 | 0.473 | 0.478
NCI-H358 | 0.435 | 0.457 | 0.479 | 0.414 | 0.444 | 0.41 | 0.436 | 0.482 | 0.703 | 0.785 | 0.542 | 0.474 | 0.529 | 0.6 | 0.681 | 0.315 | 0.319 | 0.343 | 0.319
NCI-H3122 | 0.114 | 0.148 | – | 0.114 | 0.109 | 1.03 | 1.14 | 0.71 | 1.16 | 0.824 | 0.998 | 1.05 | – | 1.15 | 0.961 | 0.711 | 0.583 | 0.636 | 0.707
NCI-H2347 | 0.367 | 0.571 | 0.505 | 0.352 | 0.886 | 0.867 | 0.93 | 0.795 | 0.859 | 1.02 | 0.698 | 0.694 | 0.692 | 0.834 | 0.807 | 0.708 | 0.636 | 0.694 | 0.783
HCC-15 | 0.334 | 0.311 | 0.332 | 0.341 | 0.389 | 0.874 | 0.952 | – | 0.883 | 0.748 | 1.27 | 1.26 | 0.877 | 1.22 | 0.461 | 0.879 | 0.71 | 0.72 | 0.92
BEN | 0.241 | 0.567 | 0.366 | 0.507 | 0.31 | 0.555 | 0.89 | 0.864 | 0.781 | 1.19 | 0.577 | 0.66 | 0.929 | 0.773 | 0.79 | 0.709 | 0.636 | 0.498 | 0.659
NCI-H1993 | 0.831 | 0.74 | 0.739 | 0.77 | 0.68 | 0.823 | 0.962 | 0.601 | 0.751 | 0.882 | 0.793 | 0.88 | 0.927 | 0.771 | 0.615 | 0.885 | 0.783 | 0.695 | 0.848

From the supplement of paper PMC10307832
